Patent publication US5418224A, “4,13-dioxabicyclo[8.2.1]tridecenone compounds and pharmaceutical compositions containing them” (Kali-Chemie Pharma GmbH, priority 1992, dated 1995)

Columns and labels:
motilin receptors = biological target: T1, motilin receptors (Oryctolagus cuniculus, UniProt G1T803); experiment: Binding capacity to motilin receptors: displacement of 125-iodine-labelled motilin, rabbit antrum crude membrane preparation; conditions: rabbit antrum crude membrane fraction, iodinated motilin 50 pM, 30° C., 60 minutes; read-out: pIC50 value (50% inhibition of the specific binding of the iodinated motilin to the motilin receptors) (converted)
T1 construct: fraction of a tissue homogenate from rabbit antrum; from tissue; host or cells: rabbit antrum, mucosa removed, crude membrane preparation
Method: 1. Determination of the binding capacity of the test substances to motilin receptors.
The affinity of the compounds of the formula I for motilin receptors is measured in vitro on a fraction of a tissue homogenate from rabbit antrum. The displacement of radioactively labelled iodinated motilin from motilin receptor binding by the test substances is determined.
The receptor binding studies were carried out by a modification of the method of Borman et al. (Regulatory Peptides 15 (1986), 143-153). To prepare the ^125 iodine-labelled motilin, motilin is iodinated enzymatically using lactoperoxidase in a known manner, for example analogously to the method described by Bloom et al. (Scand. J. Gastroenterol. 11 (1976) 47-52). […]
For the binding test, 200 μl of the crude membrane fraction (0.5-1 mg of protein) in 400 μl of a buffer solution A (50 mM tris-HCl buffer, 1.5% BSA, 10 mM MgCl2, pH 8.0) were incubated with 100 μl of iodinated motilin diluted in buffer solution B (10 mM tris-HCl buffer, 1% BSA, pH 8) (final concentration 50 pM) at 30° C. for 60 minutes. […] The residue obtained as pellet after the centrifugation was washed with buffer solution B and counted in a gamma counter. […] From this the corresponding pIC50 value was calculated.

beagle dogs [1] = experiment: In vivo determination of the effect on the rate of gastric emptying
Method: 2. In vivo determination of the effect of the substances on the rate of gastric emptying.
The determination of the rate of gastric emptying was carried out on beagle dogs which, before the test, had undergone surgical establishment of an esophagus fistula and implantation of a duodenal cannula. 15 minutes after duodenal administration of the test substances, the fasting conscious dogs were given 285 g of a semisolid caloric test meal through the esophagus fistula. The contents emptied from the stomach were collected through the duodenal cannula at 15-minute intervals. From the collected amounts of stomach contents, the time within which 50% emptying of the stomach takes place was calculated. The time is reported as measure of gastric emptying.

beagle dogs [2] = experiment: In vivo determination of the effect on the resting tone of the esophagus sphincter (pull-through manometry); conditions: conscious fasting beagle dogs, 0.251 μmole/kg intraduodenally
Method: 3. In vivo determination of the effect of the substances on the resting tone of the esophagus sphincter.
This determination is carried out on trained, conscious, fasting beagle dogs which, before the test, have each been given an esophagus fistula and a duodenal cannula. The pressure of the lower esophagus sphincter is measured by means of a perfused catheter system which has a lateral opening and which is connected to a pressure transducer and a recorder. The catheter is passed through the esophagus fistula into the stomach and then slowly withdrawn manually (=pull-through manometry). A peak is recorded when the catheter part with the lateral opening passes through the high-pressure zone of the lower esophagus sphincter. The pressure in mm Hg is determined from this peak.
In this way, initially the basal pressure of the esophagus sphincter is determined as control value. Subsequently, the test substance is administered intraduodenally and, after 15 minutes, the pressure at the lower esophagus sphincter is measured at 2-minute intervals for a period of 46 minutes. The increase in the pressure after administration of test substance compared with the previously determined basal pressure is calculated.

T1 sequence (G1T803 1-400): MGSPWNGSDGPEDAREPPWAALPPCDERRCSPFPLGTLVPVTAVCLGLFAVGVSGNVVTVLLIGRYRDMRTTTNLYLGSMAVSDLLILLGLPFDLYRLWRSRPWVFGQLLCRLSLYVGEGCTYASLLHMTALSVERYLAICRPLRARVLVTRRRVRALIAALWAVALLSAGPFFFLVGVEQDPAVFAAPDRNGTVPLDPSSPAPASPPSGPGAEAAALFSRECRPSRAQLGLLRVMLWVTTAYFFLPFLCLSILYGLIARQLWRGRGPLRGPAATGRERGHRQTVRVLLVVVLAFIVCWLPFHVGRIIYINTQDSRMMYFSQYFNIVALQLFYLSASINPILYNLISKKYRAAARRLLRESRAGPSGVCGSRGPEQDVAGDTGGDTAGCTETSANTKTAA

IC50 (motilin receptors): 4.79 nM
SMILES: CC[C@@H](O)[C@@](C)(O)[C@@H]1OC(=O)[C@H](C)[C@@H](O[C@H]2C[C@@](C)(OC)[C@@H](O)[C@H](C)O2)[C@H](C)[C@@H](O[C@@H]2O[C@H](C)C[C@H](N(C)C(C)C)[C@H]2O)[C@@]2(C)CC(C)=C(O2)[C@@H]1C [Example 1, [2R,3R(2R',3R'),6R,7S,8S,9R,10R]-3-(2',3'-dihydroxypent-2'-yl)-7-[(2,6-dideoxy-3-C-methyl-3-0-methyl-α-L-ribo-hexopyranosyl)-oxy]-9-[(3,4,6-trideoxy-3-(N-methyl-N-isopropylamino)-β-D-xylo-hexopyranosyl)-oxy]-2,6,8,10,12-pentamethyl-4,13-dioxabicyclo[8.2.1]tridec-12-en-5-one]
effect on gastric emptying (in words) (beagle dogs [1]; beagle dogs, dose of 0.46 μmole/kg, duodenal administration): distinct stimulation of gastric emptying
time for 50% emptying of the stomach (beagle dogs [1]; fasting conscious beagle dogs, 0.46 μmole/kg duodenal, 15 minutes before semisolid caloric test meal, control animal group 46 minutes): 27 min
change of basal tone of the esophagus sphincter (beagle dogs [2]; compared with basal pressure): more than doubled
persistence of the effect on esophagus sphincter tone (beagle dogs [2]; throughout duration of the test): ≥ 45 min
